# From ChEMBL document CHEMBL1201862, “PubChem BioAssay data set” (2004)
# The source made the active and inactive calls.
# Tested on: not listed separately
# Test: cytotoxicity toward NIH3T3 fibroblasts, dose response, counter-screen, cell-based, ATP luminescence, mouse fibroblasts (AID 2010);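 note: cells exposed to compound for about 90 hours before reading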
# Assay type: functional
# Conditions: not given
row,SMILES,EC50
1,CC(C)c1cc(C(N)=O)c(NC(=O)c2cccc(COc3ccc(Br)cc3)c2)s1,> 30 µM (not active)

# Biological target: Paired box protein Pax-8 (Homo sapiens, UniProt Q06710)
# Test: inhibitors of PAX8-driven TPO luciferase reporter, dose response, RMG-I cells, cherry-pick (AID 687027);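 note: luciferase reporter driven by Pax8 target thyroperoxidase promoter measured by SteadyGlo luminescence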
# Assay type: functional, cell-based
# Conditions: not given
# Chain of Paired box protein Pax-8 (Q06710 whole entry): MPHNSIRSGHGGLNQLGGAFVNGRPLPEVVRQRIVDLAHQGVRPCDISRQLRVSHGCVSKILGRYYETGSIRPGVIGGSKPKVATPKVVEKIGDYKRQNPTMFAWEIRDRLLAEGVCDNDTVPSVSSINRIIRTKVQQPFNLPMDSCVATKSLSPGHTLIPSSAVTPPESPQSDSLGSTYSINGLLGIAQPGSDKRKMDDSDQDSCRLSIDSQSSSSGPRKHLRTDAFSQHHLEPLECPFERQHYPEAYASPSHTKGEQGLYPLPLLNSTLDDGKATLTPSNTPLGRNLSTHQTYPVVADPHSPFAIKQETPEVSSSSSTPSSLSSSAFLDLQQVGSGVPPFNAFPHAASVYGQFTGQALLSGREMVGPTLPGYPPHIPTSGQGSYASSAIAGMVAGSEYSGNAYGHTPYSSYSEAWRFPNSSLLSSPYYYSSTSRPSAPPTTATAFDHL
row,SMILES,AC50
1,COc1ccc(C(=O)CCS(=O)(=O)c2ccc(C)cc2)cc1OC,9.82 µM (active)
2,Cc1ccc(S(=O)(=O)c2nc(S(=O)(=O)c3ccccc3)sc2N2CCN(C)CC2)cc1,7.56 µM (active)
3,C[C@@H]1CN([C@@H](C)CO)C(=O)c2cc(NC(=O)Nc3ccc(C(F)(F)F)cc3)ccc2O[C@@H](C)CCCCO[C@H]1CN(C)Cc1ccc(Cl)c(Cl)c1,9.66 µM (active)
4,C[C@@H]1CCCCO[C@@H](CN(C)Cc2ccc(C(F)(F)F)cc2)[C@H](C)CN([C@H](C)CO)C(=O)c2cc(NC(=O)Cc3ccccc3)ccc2O1,4.62 µM (active)

# Tested on: H9c2;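 note: confirmatory concentration-response retest of ultra-high-throughput screening hits for modulation of myocardial damage; cell death induced by hydrogen peroxide oxidative stress; compound pretreatment for 60 min then peroxide exposure for 2 h; potency is for protecting the cells against peroxide damage rather than for killing them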
# Test: cells
# Assay type: functional, cell-based
# Conditions: Rattus norvegicus, H9c2, Myocardium
row,SMILES,IC50
1,COc1ccc(CCNC(=O)c2cc3c(C)nccc3nc2O)cc1OC,> 79 µM (inactive)
2,COc1cc(C)cc2oc(=O)c(CC(=O)N3CCN(C(=O)C4COc5ccccc5O4)CC3)c(C)c12 (configuration not stated),> 79 µM (inactive)
3,Cc1ccc(-c2nnc(O)c3ccccc23)cc1S(=O)(=O)NCCN1CCOCC1,14.2 µM (active)
4,COc1cccc(C(=O)Nc2nnc(-c3ccc(Cl)cc3)o2)c1,> 79 µM (inactive)
5,CCOC(=O)COc1cc(OCC(=O)OCC)c2c3c(c(=O)oc2c1)CCCC3,10.5 µM (active)
6,O=C1COc2ccc(-c3nnc(O)c4ccccc34)cc2N1,5.26 µM (active)
7,CN(CC(=O)Nc1ccccc1Br)C(=O)CCc1nc(O)c2ccccc2n1,12.7 µM (active)
8,Cc1cc(NC(=O)COC(=O)COc2ccc3c4c(c(=O)oc3c2)CCC4)no1,13.1 µM (active)
9,COc1ccc(-c2cc(C(=O)N3CCN(c4ccccc4)CC3)c3ccccc3n2)cc1OC,63.6 µM (inactive)
10,Cn1c(C(=O)Nc2ccc3c(c2)OCCO3)cc2c(=O)n(C)c3ccccc3c21,> 79 µM (inactive)
11,COc1cc2nc(O)n3nc(-c4ccccc4)nc3c2cc1OC,> 79 µM (inactive)
12,COc1cc2c(C#CCCCO)c(-c3ccsc3)oc(=O)c2cc1OC,> 79 µM (inactive)
13,O=C(CCc1nc(O)c2ccccc2n1)NNC(=O)c1ccc(Cl)cc1,> 79 µM (inactive)
14,COc1cccc(-c2cnc3c(NC=O)cc(-c4cccc(NC(C)=O)c4)cn23)c1,> 79 µM (inactive)
15,CCN(CC(=O)Nc1ccc(OC)cc1)C(=O)CCc1nc(O)c2ccccc2n1,> 79 µM (inactive)
16,O=C(N/N=C/c1cn(-c2ccccc2)nc1-c1cccs1)c1ccccc1F,> 79 µM (inactive)
17,Cc1nc2c(c(=O)n1CCC1=CCCCC1)c1nc3ccccc3nc1n2/N=C/c1ccccc1,> 79 µM (inactive)
18,CCCCCCn1c(C)nc2c(c1=O)c1nc3ccccc3nc1n2/N=C/c1ccco1,23.3 µM (active)
19,COc1ccc(OCC(=O)N/N=C/c2cccc3cccnc23)cc1,> 79 µM (inactive)

# Biological target: T1, Rac GTPase-activating protein 1 (Homo sapiens, UniProt Q9H0H5)
# T1 sequence (Q9H0H5 whole entry): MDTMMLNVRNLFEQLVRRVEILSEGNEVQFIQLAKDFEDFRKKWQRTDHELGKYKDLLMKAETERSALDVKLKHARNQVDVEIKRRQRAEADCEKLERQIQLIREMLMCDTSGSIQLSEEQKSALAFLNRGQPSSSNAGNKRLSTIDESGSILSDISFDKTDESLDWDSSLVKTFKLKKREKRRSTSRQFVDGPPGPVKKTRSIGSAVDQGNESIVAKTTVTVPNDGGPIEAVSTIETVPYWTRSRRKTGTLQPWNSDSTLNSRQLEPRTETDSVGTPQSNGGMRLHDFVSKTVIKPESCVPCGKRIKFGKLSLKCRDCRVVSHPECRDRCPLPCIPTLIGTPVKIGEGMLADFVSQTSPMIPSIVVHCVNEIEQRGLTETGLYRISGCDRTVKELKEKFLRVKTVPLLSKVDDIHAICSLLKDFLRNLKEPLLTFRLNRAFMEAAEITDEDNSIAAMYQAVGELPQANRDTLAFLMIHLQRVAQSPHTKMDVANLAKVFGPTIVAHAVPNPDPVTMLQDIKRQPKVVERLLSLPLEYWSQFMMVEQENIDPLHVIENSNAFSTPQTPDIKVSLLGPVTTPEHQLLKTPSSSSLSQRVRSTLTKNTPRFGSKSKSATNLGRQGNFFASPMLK
# Test: MgcRacGAP GTPase-activating activity inhibitors, confirmation, biochemical, ADP Hunter fluorescence, primary and confirmatory (AID 624330)
# Assay type: functional
# Conditions: not given
row,SMILES,IC50
1,O=C(COc1ccc2ccccc2c1)N1CCN(Cc2ccncc2)CC1,62.2 µM (active)
2,CCCS(=O)(=O)N1CCN(C2Cc3ccccc3C2)CC1,180 µM (active)
3,CCOc1cc(/C=C(\C#N)C(=O)NCc2cccnc2)ccc1O,42.4 µM (active)
4,COc1cc(-c2cc(C(=O)O)c3c(OC)c(OC)c(OC)cc3n2)ccc1O,126 µM (active)
5,CSc1ccc(CN2CCN(Cc3ccccc3Cl)CC2)cc1,95.1 µM (active)
6,COc1ccccc1CNc1ncc(-c2ccccc2)n1C,49.5 µM (active)
7,CN(CC(=O)NCc1ccccc1)Cc1cccc(F)c1,67 µM (active)
8,O=C(c1cccs1)N1CCN(Cc2ccncc2)CC1,88.5 µM (active)
9,CN(C)CCNC(C(=O)Nc1cccc(C(F)(F)F)c1)c1ccccc1 (configuration not stated),76.5 µM (active)
10,CCN(CC)c1ccc(/C=N/Nc2nc(C)cc(C)n2)c(O)c1,62.8 µM (active)
11,COc1cc(/C=N/Nc2cc(C)nc(NS(=O)(=O)c3ccccc3)n2)ccc1O,37.8 µM (active)
12,CCN(CC)c1ccc(NC(=O)COC(=O)CCc2cc(OC)c(OC)c(OC)c2)cc1,81.1 µM (active)
13,Cc1ccc(NC(=O)CCC(=O)N/N=C/c2ccc(O)cc2)cc1,51.4 µM (active)
14,Oc1ccc(/C=N/NC(=S)NCc2ccco2)cc1,35.3 µM (active)
15,COc1cc(-c2ccc(N)c(OC)c2)ccc1N,9 µM (active)

# Tested on: not listed separately
# Test: control 3'UTR Renilla luciferase suppression, dose response, counter-screen for Shn3 inhibitor project, cell-based, Clone20-Shn3RL, cherry-picked (AID 624133)
# Assay type: functional
# Conditions: not given
row,SMILES,AC50
1,CC(=O)N1c2ccc(S(=O)(=O)N3CCC(C(=O)N4CCN(c5cc(Cl)ccc5C)CC4)CC3)cc2CC1C (configuration not stated),6.67 µM (active)
2,COc1cc2ncnc(N[C@H](C)c3ccccc3)c2cc1OC,22.7 µM (active)
3,COc1ccc([C@@]23Oc4cc(OC)cc(OC)c4[C@]2(O)[C@H](O)[C@H](C(=O)N(C)C)[C@H]3c2ccccc2)cc1 [ROCAGLAMIDE],0.889 µM (active)

# Biological target: T2, RNA-binding protein pos-1 (Caenorhabditis elegans, UniProt G5EF15)
# T2 sequence (G5EF15 whole entry): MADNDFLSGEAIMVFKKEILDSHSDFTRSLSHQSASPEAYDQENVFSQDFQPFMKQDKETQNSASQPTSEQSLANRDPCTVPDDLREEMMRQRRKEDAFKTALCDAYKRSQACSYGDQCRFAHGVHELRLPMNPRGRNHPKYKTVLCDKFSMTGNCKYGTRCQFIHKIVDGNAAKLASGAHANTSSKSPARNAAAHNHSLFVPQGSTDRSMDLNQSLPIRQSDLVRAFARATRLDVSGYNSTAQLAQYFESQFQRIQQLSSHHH
# Test: inhibitors of POS-1/mex-3 RNA binding, dose response, biochemical, fluorescence polarization (AID 1964);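 note: purified POS-1 fused to maltose binding protein made in E. coli; potency of compounds blocking POS-1 binding to fluorescent RNA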
# Conditions: not given
row,SMILES,EC50
1,CC(C)c1cc(C(N)=O)c(NC(=O)c2cccc(COc3ccc(Br)cc3)c2)s1,> 300 µM (not active)

# Tested on: not listed separately
# Test: Shn3 3'UTR reporter inhibitors, dose response, cell-based, Clone20 osteoblasts, firefly luciferase, cherry-picked (AID 624132);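 note: firefly luciferase luminescence from reporter carrying the Shn3 3'UTR in osteoblasts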
# Assay type: functional
# Conditions: not given
row,SMILES,AC50
1,CC(=O)N1c2ccc(S(=O)(=O)N3CCC(C(=O)N4CCN(c5cc(Cl)ccc5C)CC4)CC3)cc2CC1C (configuration not stated),3.1 µM (active)
2,COc1cc2ncnc(N[C@H](C)c3ccccc3)c2cc1OC,8.72 µM (active)
3,COc1ccc([C@@]23Oc4cc(OC)cc(OC)c4[C@]2(O)[C@H](O)[C@H](C(=O)N(C)C)[C@H]3c2ccccc2)cc1 [ROCAGLAMIDE],< 0.26 µM (active)

# Biological target: FAD-linked sulfhydryl oxidase ALR (Homo sapiens, UniProt P55789)
# Test: inhibitors of human ALR sulfhydryl oxidase, dose response, biochemical, H2O2 detection, luminescence, cherry-pick (AID 493248)
# Conditions: not given
# Chain of FAD-linked sulfhydryl oxidase ALR (P55789 whole entry): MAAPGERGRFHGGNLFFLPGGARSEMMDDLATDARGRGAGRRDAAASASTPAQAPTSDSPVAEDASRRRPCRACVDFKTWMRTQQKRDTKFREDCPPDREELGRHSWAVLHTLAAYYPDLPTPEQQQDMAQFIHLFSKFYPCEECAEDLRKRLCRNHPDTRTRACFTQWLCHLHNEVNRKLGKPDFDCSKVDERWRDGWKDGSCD
row,SMILES,AC50
1,COc1cc(OC)cc(C(=O)N2CCN=C2SCc2cccnc2)c1,0.154 µM (active)
2,CC(=O)Oc1cc2oc(=O)cc(C)c2cc1Cl,2.62 µM (active)
3,CCN1C(=O)c2cccc3c(S(=O)(=O)Nc4ccc(O)c(C(=O)O)c4)ccc1c23,1.55 µM (active)
4,COc1cc(/C=N/NC(=O)c2cc(-c3ccc4c(c3)OCO4)[nH]n2)ccc1O,0.408 µM (active)
5,O=C(CN1CCCc2ccccc21)N/N=C/c1ccc(O)cc1O,2.35 µM (active)

# Tested on: not listed separately
# Test: Luminescence Cell-Based Dose Confirmation HTS to Identify Activators of 5'UTR Stem-Loop Driven Alpha-Synuclein mRNA Translation in H4 Neuroglioblastoma Cells. [Related pubchem assays: 1829 (Project Summary), 1814 (Primary HTS)]
# Assay type: functional
# Conditions: not given
row,SMILES,EC50
1,CN1C/C(=C\c2ccc(N3CCOCC3)cc2)C(=O)/C(=C/c2ccc(N3CCOCC3)cc2)C1,23.7 µM (active)
2,CC(C)c1cc(C(N)=O)c(NC(=O)c2cccc(COc3ccc(Br)cc3)c2)s1,11.3 µM (active)

# Tested on: not listed separately
# Test: inhibitors of intracellular T. cruzi replication, confirmation, NIH3T3 host cells, beta-gal luminescence (AID 2044);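 note: intracellular parasites grown in NIH/3T3 mouse fibroblasts as host cells; luminescent beta-galactosidase reporter signal from transgenic T. cruzi replicating inside host cells; inhibitors lower the luminescence signal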
# Assay type: functional, cell-based
# Conditions: not given
row,SMILES,EC50
1,CC(C)c1cc(C(N)=O)c(NC(=O)c2cccc(COc3ccc(Br)cc3)c2)s1,1.87 µM (active)

# Biological target: T3, Zinc finger protein mex-5 (Caenorhabditis elegans, UniProt Q9XUB2)
# T3 sequence (Q9XUB2 whole entry): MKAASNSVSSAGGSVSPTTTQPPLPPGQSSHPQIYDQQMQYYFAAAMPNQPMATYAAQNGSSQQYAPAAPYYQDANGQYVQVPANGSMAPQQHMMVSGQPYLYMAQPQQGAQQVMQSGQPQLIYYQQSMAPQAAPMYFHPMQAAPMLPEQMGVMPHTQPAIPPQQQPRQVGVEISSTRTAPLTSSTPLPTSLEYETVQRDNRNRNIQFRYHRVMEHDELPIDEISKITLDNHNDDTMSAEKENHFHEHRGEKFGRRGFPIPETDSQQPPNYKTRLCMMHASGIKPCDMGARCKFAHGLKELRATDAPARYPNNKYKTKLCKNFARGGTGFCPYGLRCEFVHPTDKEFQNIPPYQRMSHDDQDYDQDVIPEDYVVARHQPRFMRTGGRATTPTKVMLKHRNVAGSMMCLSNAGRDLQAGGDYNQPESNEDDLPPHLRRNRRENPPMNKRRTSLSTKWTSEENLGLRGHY
# Test: MEX-5/TCR-2 RNA interaction inhibitors, dose response, biochemical, C. elegans, fluorescence polarization (AID 1960)
# Conditions: not given
row,SMILES,EC50
1,CC(C)c1cc(C(N)=O)c(NC(=O)c2cccc(COc3ccc(Br)cc3)c2)s1,> 300 µM (not active)

# Tested on: INS1
# Test: beta cell apoptosis inhibitors, cytokine rescue, dose response, luminescence, retest (AID 449756);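 note: cell death triggered by IL-1 beta plus TNF-alpha plus IFN-gamma mixture; protective hits raise ATP signal compared with cytokine alone wells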
# Assay type: functional, cell-based
# Conditions: Rattus norvegicus
row,SMILES,AC50
1,CCN(CC)c1ccc(/C=N/Nc2nc(C)cc(C)n2)c(O)c1,2.84 µM (active)

# Tested on: not listed separately
# Test: Luminescence Cell-Based Dose Response HTS to Identify Activators of Luciferase Translation or Activity in H4 […] Cells. [Related pubchem assays: 1829 (Project Summary), 1814 (Primary HTS)]
# Assay type: functional
# Conditions: not given
row,SMILES,EC50
1,CN1C/C(=C\c2ccc(N3CCOCC3)cc2)C(=O)/C(=C/c2ccc(N3CCOCC3)cc2)C1,48.1 µM (active)
2,CC(C)c1cc(C(N)=O)c(NC(=O)c2cccc(COc3ccc(Br)cc3)c2)s1,41.9 µM (active)

# Tested on: H4
# Test: Luminescence Cell-Based Dose Response HTS to Identify Activators of 5'UTR Stem-Loop Driven Prion Protein mRNA Translation in H4 Neuroglioblastoma Cells. [Related pubchem assays: 1829 (Project Summary), 1814 (Primary HTS)]
# Assay type: functional
# Conditions: Homo sapiens
row,SMILES,EC50
1,CN1C/C(=C\c2ccc(N3CCOCC3)cc2)C(=O)/C(=C/c2ccc(N3CCOCC3)cc2)C1,> 120 µM (not active)
2,CC(C)c1cc(C(N)=O)c(NC(=O)c2cccc(COc3ccc(Br)cc3)c2)s1,0.366 µM (active)

# Tested on: not listed separately
# Test: HEp-2 cell cytotoxicity, dose response, cytotoxicity control for RSV inhibitor project, HTS (AID 2410)
# Assay type: functional
# Conditions: human respiratory syncytial virus
row,SMILES,CC50
1,CN1C/C(=C\c2ccc(N3CCOCC3)cc2)C(=O)/C(=C/c2ccc(N3CCOCC3)cc2)C1,22.8 µM (active)
2,O=C(N/N=C/c1cn(-c2ccccc2)nc1-c1cccs1)c1ccccc1F,25.6 µM (active)
